Columns and labels:
Type in all cases: cell-based, human
Breast cancer cell lines = experiment: NCI anticancer screen, SRB assay, panel summary
Procedure: (§1) Some of biological activity studies were carried out at the National Cancer Institute (NCI), Maryland, USA.
(§2) The compounds were evaluated for anticancer activity against fifty three human cancer cells derived from nine cancer types (leukemia cell line, non-small-cell lung cell line, colon cell line, CNS cell line, melanoma cell line, ovarian cell line, prostate cell line, and breast cancer cell line) as shown in Table 1. For each compound, dose response curves for each cell line were measured at a minimum of five concentrations at 10 fold dilutions. A protocol of 48 h continuous drug exposure was used and a sulforhodamine B (SRB) protein assay was used to estimate cell viability or growth.

Renal cancer cell lines = experiment: NCI anticancer screen, SRB assay, panel summary
Procedure: as §1, §2

[1] = tested on: Ovarian cancer cell lines; experiment: NCI anticancer screen, SRB assay, panel summary
Procedure: as §1, §2

[2] = tested on: Non-small cell lung cancer cell lines; experiment: NCI anticancer screen, SRB assay, panel summary
Procedure: as §1, §2

[3] = tested on: Leukemia cancer cell lines; experiment: NCI anticancer screen, SRB assay, panel summary; settings: Leukemia panel
Procedure: as §1, §2

Colon cancer cell lines = experiment: NCI anticancer screen, SRB assay, panel summary; settings: Colon panel
Procedure: as §1, §2

CNS cancer cell lines = experiment: NCI anticancer screen, SRB assay, panel summary; settings: CNS panel
Procedure: as §1, §2

[4] = tested on: Melanoma cancer cell lines; experiment: NCI anticancer screen, SRB assay, panel summary; settings: Melanoma panel
Procedure: as §1, §2

SK-MEL-28 (melanoma) = experiment: NCI anticancer screen, SRB assay, 48 h
Procedure: as §1, §2

HCC-2998 (colon) = experiment: NCI anticancer screen, SRB assay, 48 h
Procedure: as §1, §2

[5] = tested on: NCI-H460 (non-small cell lung); experiment: NCI anticancer screen, SRB assay, 48 h
Procedure: as §1, §2

SF-295 (CNS) = experiment: NCI anticancer screen, SRB assay, 48 h
Procedure: as §1, §2

COLO 205 (colon) = experiment: NCI anticancer screen, SRB assay, 48 h
Procedure: as §1, §2

HT29 (colon) = experiment: NCI anticancer screen, SRB assay, 48 h
Procedure: as §1, §2

SNB-75 (CNS) = experiment: NCI anticancer screen, SRB assay, 48 h
Procedure: as §1, §2

KM12 (colon) = experiment: NCI anticancer screen, SRB assay, 48 h
Procedure: as §1, §2

A498 (renal) = experiment: NCI anticancer screen, SRB assay, 48 h
Procedure: as §1, §2

SF-539 (CNS) = experiment: NCI anticancer screen, SRB assay, 48 h
Procedure: as §1, §2

SK-MEL-2 (melanoma) = experiment: NCI anticancer screen, SRB assay, 48 h
Procedure: as §1, §2

ACHN (renal) = experiment: NCI anticancer screen, SRB assay, 48 h
Procedure: as §1, §2

BT-549 (breast) = experiment: NCI anticancer screen, SRB assay, 48 h
Procedure: as §1, §2

[6] = tested on: NCI-H23 (non-small cell lung); experiment: NCI anticancer screen, SRB assay, 48 h
Procedure: as §1, §2

HS 578T (breast) = experiment: NCI anticancer screen, SRB assay, 48 h
Procedure: as §1, §2

OVCAR-3 (ovarian) = experiment: NCI anticancer screen, SRB assay, 48 h
Procedure: as §1, §2

LOX IMVI (melanoma) = experiment: NCI anticancer screen, SRB assay, 48 h
Procedure: as §1, §2

MDA-MB-231/ATCC (breast) = experiment: NCI anticancer screen, SRB assay, 48 h
Procedure: as §1, §2

M14 (melanoma) = experiment: NCI anticancer screen, SRB assay, 48 h
Procedure: as §1, §2

TD-47D (breast) = experiment: NCI anticancer screen, SRB assay, 48 h
Procedure: as §1, §2

SN12C (renal) = experiment: NCI anticancer screen, SRB assay, 48 h
Procedure: as §1, §2

[7] = tested on: A549/ATCC (non-small cell lung); experiment: NCI anticancer screen, SRB assay, 48 h
Procedure: as §1, §2

[8] = log of concentration in mol/L causing 50% inhibition of net cell growth
[9] = log of concentration resulting in total inhibition of net cell growth
[10] = log of concentration leading to 50% net cell death
[11] = 48 h exposure, SRB, read-out: GI50

Compound: COc1cc(/C=C/C(=O)c2cccc(-n3cc(-c4ccc(Cl)cc4)[nH]c3=O)c2)cc(OC)c1OC [5f, 4-(4-chlorophenyl)-1-3-[(E)-3-(3,4,5-trimethoxyphenyl)-2-propenoyl]phenyl-2,3-dihydro-1H-2-imidazolone]
- mean graph midpoint (MG_MID) of Log10 LC50 (Breast cancer cell lines): 4.11
- mean graph midpoint (MG_MID) of Log10 GI50 (Breast cancer cell lines; Breast panel, log of concentration in mol/L causing 50% inhibition of net cell growth): 5.18
- mean graph midpoint (MG_MID) of Log10 TGI (Breast cancer cell lines; Breast panel, log of concentration resulting in total inhibition of net cell growth): 4.38
- mean graph midpoint (MG_MID) of Log10 LC50 (Renal cancer cell lines): 3.73
- mean graph midpoint (MG_MID) of Log10 GI50 (Renal cancer cell lines; Renal panel, log of concentration in mol/L causing 50% inhibition of net cell growth): 5.15
- mean graph midpoint (MG_MID) of Log10 TGI (Renal cancer cell lines; Renal panel, log of concentration resulting in total inhibition of net cell growth): 4.55
- mean graph midpoint (MG_MID) of Log10 LC50 [1]: 4.22
- mean graph midpoint (MG_MID) of Log10 GI50 ([1]; Ovarian panel, log of concentration in mol/L causing 50% inhibition of net cell growth): 5.26
- mean graph midpoint (MG_MID) of Log10 TGI ([1]; Ovarian panel, log of concentration resulting in total inhibition of net cell growth): 4.62
- mean graph midpoint (MG_MID) of Log10 LC50 [2]: 4.06
- mean graph midpoint (MG_MID) of Log10 GI50 ([2]; Non-small cell lung panel, log of concentration in mol/L causing 50% inhibition of net cell growth): 4.72
- mean graph midpoint (MG_MID) of Log10 TGI ([2]; Non-small cell lung panel, log of concentration resulting in total inhibition of net cell growth): 4.28
- mean graph midpoint (MG_MID) of Log10 GI50 [3, 8]: 5.42
- mean graph midpoint (MG_MID) of Log10 TGI [3, 9]: 4.00
- mean graph midpoint (MG_MID) of Log10 GI50 (Colon cancer cell lines; [8]): 5.53
- mean graph midpoint (MG_MID) of Log10 LC50 (Colon cancer cell lines; [10]): 4.76
- mean graph midpoint (MG_MID) of Log10 TGI (Colon cancer cell lines; [9]): 5.15
- mean graph midpoint (MG_MID) of Log10 GI50 (CNS cancer cell lines; [8]): 5.08
- mean graph midpoint (MG_MID) of Log10 LC50 (CNS cancer cell lines; [10]): 4.24
- mean graph midpoint (MG_MID) of Log10 TGI (CNS cancer cell lines; [9]): 4.50
- mean graph midpoint (MG_MID) of Log10 GI50 [4, 8]: 5.17
- mean graph midpoint (MG_MID) of Log10 LC50 [4, 10]: 4.24
- mean graph midpoint (MG_MID) of Log10 TGI [4, 9]: 4.56
- pGI50 (-log of molar concentration causing 50% inhibition of net cell growth) (SK-MEL-28 (melanoma)): 4.96
- GI50 (SK-MEL-28 (melanoma); [11]): 10.9 µM
- pGI50 (-log of molar concentration causing 50% inhibition of net cell growth) (HCC-2998 (colon)): 5.61
- GI50 (HCC-2998 (colon); [11]): 2.46 µM
- pGI50 (-log of molar concentration causing 50% inhibition of net cell growth) [5]: 5.43
- GI50 [5, 11]: 3.74 µM
- pGI50 (-log of molar concentration causing 50% inhibition of net cell growth) (SF-295 (CNS)): 4.61
- GI50 (SF-295 (CNS); [11]): 24.3 µM
- pGI50 (-log of molar concentration causing 50% inhibition of net cell growth) (COLO 205 (colon); COLO205): 5.13
- GI50 (COLO 205 (colon); COLO 205, 48 h exposure, SRB, read-out: GI50): 7.38 µM
- pGI50 (-log of molar concentration causing 50% inhibition of net cell growth) (HT29 (colon)): 5.70
- GI50 (HT29 (colon); [11]): 2 µM
- pGI50 (-log of molar concentration causing 50% inhibition of net cell growth) (SNB-75 (CNS)): 4.69
- pGI50 (-log of molar concentration causing 50% inhibition of net cell growth) (KM12 (colon)): 5.26
- GI50 (KM12 (colon); [11]): 5.45 µM
- pGI50 (-log of molar concentration causing 50% inhibition of net cell growth) (A498 (renal)): 4.52
- GI50 (A498 (renal); [11]): 30.2 µM
- pGI50 (-log of molar concentration causing 50% inhibition of net cell growth) (SF-539 (CNS)): 5.46
- GI50 (SF-539 (CNS); [11]): 3.49 µM
- pGI50 (-log of molar concentration causing 50% inhibition of net cell growth) (SK-MEL-2 (melanoma)): 5.46
- GI50 (SK-MEL-2 (melanoma); [11]): 3.44 µM
- pGI50 (-log of molar concentration causing 50% inhibition of net cell growth) (ACHN (renal)): 5.14
- GI50 (ACHN (renal); [11]): 7.17 µM
- pGI50 (-log of molar concentration causing 50% inhibition of net cell growth) (BT-549 (breast)): 4.91
- GI50 (BT-549 (breast); [11]): 12.3 µM
- pGI50 (-log of molar concentration causing 50% inhibition of net cell growth) [6]: 5.45
- GI50 [6, 11]: 3.56 µM
- pGI50 (-log of molar concentration causing 50% inhibition of net cell growth) (HS 578T (breast)): 5.22
- GI50 (HS 578T (breast); [11]): 5.96 µM
- pGI50 (-log of molar concentration causing 50% inhibition of net cell growth) (OVCAR-3 (ovarian)): 5.61
- GI50 (OVCAR-3 (ovarian); [11]): 2.4 µM
- pGI50 (-log of molar concentration causing 50% inhibition of net cell growth) (LOX IMVI (melanoma)): 5.76
- GI50 (LOX IMVI (melanoma); [11]): 1.72 µM
- pGI50 (-log of molar concentration causing 50% inhibition of net cell growth) (MDA-MB-231/ATCC (breast)): 4.86
- GI50 (MDA-MB-231/ATCC (breast); [11]): 13.8 µM
- pGI50 (-log of molar concentration causing 50% inhibition of net cell growth) (M14 (melanoma)): 5.36
- GI50 (M14 (melanoma); [11]): 4.36 µM
- pGI50 (-log of molar concentration causing 50% inhibition of net cell growth) (TD-47D (breast)): 5.18
- GI50 (TD-47D (breast); [11]): 6.65 µM
- pGI50 (-log of molar concentration causing 50% inhibition of net cell growth) (SN12C (renal); SN 12C): 5.29
- GI50 (SN12C (renal); SN12C, 48 h exposure, SRB, read-out: GI50): 5.14 µM
- pGI50 (-log of molar concentration causing 50% inhibition of net cell growth) [7]: 4.07
- GI50 [7, 11]: 85.2 µM

From patent US8889874B2, “Imidazolone-chalcone derivatives as potential anticancer agent and process for the preparation thereof” (Council of Scientific and Industrial Research, priority 2010, dated 2014)
